# Test results from US20260108546A1 (ELI LILLY AND COMPANY, priority 2024, published 2026).
# Target: T1, hGIP-R (Homo sapiens, UniProt P48546)
# T1 construct: expressed in transfected cells; host or cells: HEK-293 clonal cell lines
# T1 sequence (P48546 22-466): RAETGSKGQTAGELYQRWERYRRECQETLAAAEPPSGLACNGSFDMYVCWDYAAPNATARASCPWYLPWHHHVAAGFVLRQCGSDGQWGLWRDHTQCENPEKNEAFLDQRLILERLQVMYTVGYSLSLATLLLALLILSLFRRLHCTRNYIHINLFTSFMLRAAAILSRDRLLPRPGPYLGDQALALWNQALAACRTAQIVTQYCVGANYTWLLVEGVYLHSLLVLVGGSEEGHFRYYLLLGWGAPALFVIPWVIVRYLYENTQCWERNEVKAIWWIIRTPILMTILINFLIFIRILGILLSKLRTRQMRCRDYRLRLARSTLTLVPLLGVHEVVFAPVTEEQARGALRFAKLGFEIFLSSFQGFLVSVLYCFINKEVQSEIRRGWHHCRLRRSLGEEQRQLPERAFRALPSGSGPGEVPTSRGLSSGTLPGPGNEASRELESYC
# Experiment: Functional hGIP-R Assay (cAMP formation, HTRF)
# Type: cell-based
# Conditions: for Emax: cAMP efficacy, percent of maximal response to GIP(1-42)OH, 37° C., 0.1% bovine casein, arithmetic mean ± SEM; for EC50: cAMP potency, HEK-293 cells expressing hGIP-R, incubated at 37° C. in the presence of 0.1% bovine casein, geometric mean, read-out: Human GIP-R EC50, nM (SEM, n)
# Outline: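 HEK-293 cells expressing hGIP-R were given a 20-point compound series in DMEM with 0.1% casein, 250 μM IBMX, 1% DMSO, 30 min at 37 °C. cAMP was read by HTRF against a standard curve, expressed as % of human GIP (1-42) OH maximum; EC50 and Emax came from four-parameter fits.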
SMILES,Emax [%],EC50 [nM]
"CC(C)(Cn1cc(C(F)(F)F)cn1)NC(=O)[C@@H](Cc1cnc2ncccn12)NC(=O)[C@H]1C[C@@H]1c1ccc(-c2cnc3nc(C(C)(F)F)cn3c2)cc1 [Example 80, (1S,2S)-2-(4-(2-(1,1-Difluoroethyl)imidazo[1,2-a]pyrimidin-6-yl)phenyl)-N-((R)-3-(imidazo[1,2-a]pyrimidin-3-yl)-1-((2-methyl-1-(4-(trifluoromethyl)-1H-pyrazol-1-yl)propan-2-yl)amino)-1-oxopropan-2-yl)cyclopropane-1-carboxamide]",109 ± 4.1,28.6
"Cc1cn2cc(-c3ccc([C@H]4C[C@@]45CCN([C@H](Cc4cnn(C(F)F)c4)C(=O)NC(C)(C)Cc4nc(C(F)(F)F)cn4C4CCN(C)C4=O)C5=O)c(Cl)c3)cnc2n1 (single isomer, unassigned; isomer 1) [Example 177]",115 ± 1.59,0.845
"Cn1cc(C[C@@H](NC(=O)C2CC2c2ccc(-c3cnc4nccn4c3)cc2C(F)(F)F)C(=O)NC(C)(C)Cc2ccc(F)cc2)cn1 (single isomer, unassigned; isomer 2) [Example 29]",99.4,79.8
"CC(C)(Cn1ccc(C(F)(F)F)n1)NC(=O)[C@@H](Cc1cnc2ncccn12)NC(=O)[C@H]1C[C@@H]1c1ccc(-c2cnc3nccn3c2)cc1 [Example 39, (1S,2S)-N-((R)-3-(Imidazo[1,2-a]pyrimidin-3-yl)-1-((2-methyl-1-(3-(trifluoromethyl)-1H-pyrazol-1-yl)propan-2-yl)amino)-1-oxopropan-2-yl)-2-(4-(imidazo[1,2-a]pyrimidin-6-yl)phenyl) cyclopropane-1-carboxamide]",77.8 ± 2.57,63.1
"Cn1cc(C[C@@H](NC(=O)[C@H]2C[C@@H]2c2ccc(-c3cnc4nn(C)cc4c3)cc2)C(=O)NC(C)(C)Cn2nc(C(F)(F)F)cc2-c2ccn(C3CCOC3)n2)cn1 (mixture of isomers) [Example 53, (1S,2S)-N-((R)-1-((2-Methyl-1-(1-((RS)-tetrahydrofuran-3-yl)-5′-(trifluoromethyl)-1H,2′H-[3,3′-bipyrazol]-2′-yl)propan-2-yl)amino)-3-(1-methyl-1H-pyrazol-4-yl)-1-oxopropan-2-yl)-2-(4-(2-methyl-2H-pyrazolo[3,4-b]pyridin-5-yl)phenyl) cyclopropane-1-carboxamide, mixture of 2 diastereomers]",123 ± 4.24,22.6
"Cc1cn2cc(-c3ccc([C@H]4C[C@@]45CCN([C@H](Cc4cnn(C(F)F)c4)C(=O)NC(C)(C)Cn4nc(C(F)(F)F)cc4-c4cnc(C(F)(F)F)nc4)C5=O)cc3)cnc2n1 (single isomer, unassigned; isomer 1) [Example 102]",69.4 ± 0.0734,50.9
"CN(C)Cc1ccc(-c2cc(C(F)(F)F)nn2CC(C)(C)NC(=O)[C@@H](Cc2cnn(C(F)F)c2)N2CC[C@@]3(C[C@@H]3c3ccc(-c4cnc5nn(C)cc5c4)cc3F)C2=O)cn1 [Example 135, (R)-3-(1-(Difluoromethyl)-1H-pyrazol-4-yl)-N-(1-(5-(6-((dimethylamino)methyl)pyridin-3-yl)-3-(trifluoromethyl)-1H-pyrazol-1-yl)-2-methylpropan-2-yl)-2-((1S,3R)-1-(2-fluoro-4-(2-methyl-2H-pyrazolo[3,4-b]pyridin-5-yl)phenyl)-4-oxo-5-azaspiro[2.4]heptan-5-yl)propanamide]",48.5 ± 2.32,5.61
"Cc1ccc2cc(-c3ccc([C@H]4C[C@@H]4C(=O)N[C@H](Cc4cnn(C)c4)C(=O)NC(C)(C)Cn4nc(C(F)(F)F)cc4-c4cn[nH]n4)cc3)cnc2n1 [Example 94, (1S,2S)-N—((R)-1-((1-(5-(2H-1,2,3-Triazol-4-yl)-3-(trifluoromethyl)-1H-pyrazol-1-yl)-2-methylpropan-2-yl)amino)-3-(1-methyl-1H-pyrazol-4-yl)-1-oxopropan-2-yl)-2-(4-(7-methyl-1,8-naphthyridin-3-yl)phenyl)cyclopropane-1-carboxamide]",101,35.4
